Assay results: article PMC10644720 (Frontiers in Pharmacology, 2023)

Legend:
[1] = system: human washed platelets; assay: Platelet-fibrinogen spreading assay; assay type: cell-based; details: 25 μg/mL fibrinogen-coated slides
Experimental: As previously reported ([Banfi et al., 2022]), 50 μg/mL collagen and 25 μg/mL fibrinogen (Cat No. F3879-100 MG; Sigma-Aldrich, St. Louis, MO, United States) were used to coat coverslips overnight at 4°C. […] The coated slides were washed three times with PBS and blocked with 1% BSA (prepared in PBS) for 1 h at room temperature. The blocking solution was removed, and WPs were added for adhesion experiments. The WPs were allowed to adhere to the slides for 15–60 min at 37°C. The unadhered platelets were removed by PBS. The platelets were fixed with 2% paraformaldehyde solution for 15 min, broken using 1% Triton-100 for 5 min, and stained with phalloidin (1:1,000, Cat No.17466-45-4, Sigma-Aldrich) for 30 min away from light at room temperature. The platelet morphology was observed using an Olympus ix73 microscope (Olympus Corp., Shinjuku, Japan) and photographed. The number of platelet adhesions and spreading area were analyzed and calculated using ImageJ software.

[2] = target: T1, Recombinant human GPVI protein (Homo sapiens, UniProt Q9HCN6); assay: Surface plasmon resonance (SPR); details: Biacore S200, 25°C, 1:1 binding model
T1 construct: purchased MedChemExpress HY-P70180
T1 sequence (Q9HCN6 21-267 limits assumed): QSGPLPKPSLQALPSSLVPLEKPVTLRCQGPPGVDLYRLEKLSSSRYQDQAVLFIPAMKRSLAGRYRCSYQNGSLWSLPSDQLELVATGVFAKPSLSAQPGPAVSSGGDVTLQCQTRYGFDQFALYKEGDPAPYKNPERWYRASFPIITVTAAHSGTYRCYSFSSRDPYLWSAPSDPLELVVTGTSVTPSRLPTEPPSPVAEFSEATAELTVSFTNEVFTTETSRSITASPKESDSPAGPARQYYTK
Experimental: The SPR experiment was performed on a Biacore S200 instrument (GE Healthcare; Uppsala, Sweden) at 25°C. Recombinant human GPVI protein, rhGPVI (Cat. HY-P70180; MedChemExpress), was immobilized at the level of 4,400 response units, with 10 mM sodium acetate buffer (pH 4.5) on a Series S CM5 Sensor Chip (Cat. 29104988; cytiva) at the concentration of 50 μg/mL.

[3] = system: GPVI signaling; assay: Western blot of ITAM and MAPK signaling molecules; assay type: cell-based, human; details: convulxin-induced
Experimental: A lysis buffer (5x, PBS, PH7.4, comprising 2.5% sodium dodecyl sulfate [SDS], 5% deoxycholate, 5% vol/vol Triton X-100, phosphatase and proteinase inhibitors cocktails) was used to lyse the cells on ice for 30 min. The platelet lysate was centrifuged at 12,000 rpm for 10 min at 4°C. The supernatant was added to 5× protein loading buffer and boiled. The proteins were separated by 10% SDS-PAGE gels and transferred to membranes. The PVDF membranes were blocked in EveryBlot Blocking buffer (Cat No. 12010020; Bio-Rad, Hercules, CA, United States) for 10 min. […] The intensity of the target bands was assessed by ImageJ software.

[4] = Tail bleeding in mice; assay type: in vivo, C57BL/6 mice; details: luteolin 35 μM/kg or aspirin i.p., 30 min after injection; vs DMSO
Experimental: The tail break hemorrhage experiment in mice was performed as previously reported, with slight modifications ([Liu et al., 2012]). […] Before the experiment, the mouse tails were immersed in saline for 3 min at 37°C. Then, 30 min after injection, the tails were quickly cut off using a surgical knife blade and placed in saline at 37°C. The cutting site was 5 mm from the end of the tail tip. The bleeding time of the broken tails was observed and recorded.

[5] = set-up: method as in Aziz et al., 2018; details: intraperitoneal injection; ref Aziz et al., 2018; cited from earlier work
[6] = set-up: method as in Cheurfa et al., 2019; details: diet-induced obese mice; 200 mg/kg/d; ref Cheurfa et al., 2019; cited from earlier work

In the case of `O=c1cc(-c2ccc(O)c(O)c2)oc2cc(O)cc(O)c12` [Luteolin], the “platelet spreading on fibrinogen” value [1] is reported as “inhibited”, the K a [2] is reported as 7,227 m^−1s^−1 and the K d [2] is reported as 0.03 s⁻¹. For the same molecule, the Kd [2] was 4.13 µM, the “phosphorylation of MAPK and ITAM” value ([3]; Erk 1/2, SAPK/JNK, p38 MAPK) was “significant inhibitory effect” and the “phosphorylation of Src, Syk, PLCγ2, Akt and GSK-3β” value ([3]; non-aggregating conditions) was “inhibited”. For the same molecule, the tail bleeding time [4] was “no significant prolonging effect”, the LD50 [5] was 180 mg/kg and the low-density lipoprotein content [6] was “significantly reduced”.
